Experimental data reported in the supplement of paper PMC11451515.

System: NOMO1
Experiment: cell viability relative to DMSO control; higher = less cytotoxic
Conditions: 48 h
Summary of the method: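 Cells were incubated for 48 h at 37°C before CellTiter-Glo One luminescence was read. The cells were NOMO1 or SEM (500 cells/well) or P12-Ichikawa (1000 cells/well) leukemia cells, adapted for at least four passages in each medium and seeded in 1536-well plates (5 μl). Dosing used library compounds in DMSO applied by pin over 11 threefold points, 47 μM to 0.79 nM. Viability is the per-plate percentage of DMSO wells, with cell-free wells as background.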

[1] = HPLM + 10% dialyzed FBS, 0.000781 µM
[2] = HPLM + 10% dialyzed FBS, 0.00234 µM
[3] = HPLM + 10% dialyzed FBS, 0.00702 µM
[4] = HPLM + 10% dialyzed FBS, 0.0211 µM
[5] = HPLM + 10% dialyzed FBS, 0.0632 µM
[6] = HPLM + 10% dialyzed FBS, 0.19 µM
[7] = HPLM + 10% dialyzed FBS, 0.569 µM
[8] = HPLM + 10% dialyzed FBS, 1.71 µM
[9] = HPLM + 10% dialyzed FBS, 5.12 µM
[10] = HPLM + 10% dialyzed FBS, 15.4 µM
[11] = HPLM + 10% dialyzed FBS, 46.1 µM
[12] = RPMI 5 mM glucose + 10% FBS, 0.000781 µM
[13] = RPMI 5 mM glucose + 10% FBS, 0.00234 µM
[14] = RPMI 5 mM glucose + 10% FBS, 0.00702 µM
[15] = RPMI 5 mM glucose + 10% FBS, 0.0211 µM
[16] = RPMI 5 mM glucose + 10% FBS, 0.0632 µM
[17] = RPMI 5 mM glucose + 10% FBS, 0.19 µM
[18] = RPMI 5 mM glucose + 10% FBS, 0.569 µM
[19] = RPMI 5 mM glucose + 10% FBS, 1.71 µM
[20] = RPMI 5 mM glucose + 10% FBS, 5.12 µM
[21] = RPMI 5 mM glucose + 10% FBS, 15.4 µM
[22] = RPMI 5 mM glucose + 10% FBS, 46.1 µM
[23] = RPMI 5 mM glucose + 10% dialyzed FBS, 0.000781 µM
[24] = RPMI 5 mM glucose + 10% dialyzed FBS, 0.00234 µM
[25] = RPMI 5 mM glucose + 10% dialyzed FBS, 0.00702 µM
[26] = RPMI 5 mM glucose + 10% dialyzed FBS, 0.0211 µM
[27] = RPMI 5 mM glucose + 10% dialyzed FBS, 0.0632 µM
[28] = RPMI 5 mM glucose + 10% dialyzed FBS, 0.19 µM
[29] = RPMI 5 mM glucose + 10% dialyzed FBS, 0.569 µM
[30] = RPMI 5 mM glucose + 10% dialyzed FBS, 1.71 µM
[31] = RPMI 5 mM glucose + 10% dialyzed FBS, 5.12 µM
[32] = RPMI 5 mM glucose + 10% dialyzed FBS, 15.4 µM
[33] = RPMI 5 mM glucose + 10% dialyzed FBS, 46.1 µM

| Compound | cell viability [1] | cell viability [2] | cell viability [3] | cell viability [4] | cell viability [5] | cell viability [6] | cell viability [7] | cell viability [8] | cell viability [9] | cell viability [10] | cell viability [11] | cell viability [12] | cell viability [13] | cell viability [14] | cell viability [15] | cell viability [16] | cell viability [17] | cell viability [18] | cell viability [19] | cell viability [20] | cell viability [21] | cell viability [22] | cell viability [23] | cell viability [24] | cell viability [25] | cell viability [26] | cell viability [27] | cell viability [28] | cell viability [29] | cell viability [30] | cell viability [31] | cell viability [32] | cell viability [33] |
| --- | --- | --- | --- | --- | --- | --- | --- | --- | --- | --- | --- | --- | --- | --- | --- | --- | --- | --- | --- | --- | --- | --- | --- | --- | --- | --- | --- | --- | --- | --- | --- | --- | --- |
| COc1ccc(C(C)=O)c(O)c1 | 115% | 114% | 109% | 121% | 111% | 93.7% | 98% | 45.9% | 41.4% | 23.9% | 26.2% | 116% | 111% | 119% | 118% | 116% | 127% | 112% | 56.6% | 64.8% | 20.1% | 22.6% | 111% | 115% | 105% | 105% | 124% | 129% | 123% | 75.6% | 59.9% | 25.7% | 24.2% |
| OC1CCC(Nc2ncc3nc(Nc4c(F)cc(F)cc4F)n([C@@H]4CCOC4)c3n2)CC1 (some centres not stated) | 112% | 119% | 131% | 143% | 126% | 142% | 143% | 134% | 141% | 131% | 128% | 106% | 113% | 108% | 113% | 107% | 118% | 105% | 110% | 125% | 115% | 121% | 102% | 119% | 115% | 119% | 114% | 128% | 122% | 125% | 135% | 131% | 126% |
| Cc1cc(C(C)(C)C)c(O)c(C)c1CC1=NCCN1 | 90.1% | 99.5% | 103% | 103% | 101% | 108% | 105% | 107% | 83.8% | 55% | 43.4% | 91.6% | 97.3% | 99.1% | 90% | 86.2% | 105% | 90.8% | 97.8% | 88.9% | 56.4% | 43.2% | 78% | 85.6% | 91.8% | 97.4% | 100% | 100% | 97% | 93.2% | 101% | 61.2% | 54.1% |
| N#Cc1c(NC(=O)c2cccc3ccccc23)sc2c1CCCC2 |  |  |  |  |  |  |  |  |  |  |  | 120% | 142% | 118% | 128% | 139% | 134% | 127% | 25.4% | 26.1% | 21.7% | 21% |  |  |  |  |  |  |  |  |  |  |  |
| CNC[C@H](O)c1ccc(O)c(O)c1 | 112% | 95.6% | 104% | 104% | 96.9% | 102% | 88.1% | 89.2% | 86.3% | 77.1% | 73% | 84.7% | 89.8% | 83% | 87.6% | 84.6% | 80.5% | 90.7% | 89.9% | 80% | 76.7% | 77.9% | 84.2% | 90.4% | 93.8% | 85.6% | 95.9% | 91.3% | 84.2% | 75.5% | 84.6% | 76.5% | 77.7% |
| O=C(NC[C@H](O)CO)c1ccncc1Nc1ccc(I)cc1F | 94.7% | 98.5% | 90% | 93% | 82.2% | 60.9% | 53.2% | 56% | 49.2% | 38.6% | 40.4% | 103% | 101% | 111% | 90.8% | 65.2% | 61.7% | 52.6% | 51.6% | 47.6% | 37.9% | 6.49% | 88.3% | 96.1% | 93.6% | 81.1% | 72.2% | 61.9% | 52% | 49.1% | 41.6% | 38.9% | 39.3% |
| Cc1[nH]c2ccccc2c1CCNCc1ccc(/C=C/C(=O)NO)cc1 | 102% | 108% | 126% | 99.9% | 137% | 103% | 61.8% | 14.2% | 9% | 8.41% | 8.11% | 111% | 118% | 108% | 106% | 110% | 102% | 82.9% | 10.9% | 7.29% | 7.8% | 7.5% | 106% | 122% | 116% | 99.5% | 122% | 110% | 84.4% | 13% | 8.52% | 9.32% | 7.81% |
| CNC(=O)c1ccc(N2C(=S)N(c3ccc(C#N)c(C(F)(F)F)c3)C(=O)C23CCC3)cc1F | 90.5% | 90.2% | 91.7% | 33.3% | 95.1% | 105% | 103% | 107% | 92.6% | 93.2% | 111% | 80.5% | 88.3% | 83.6% | 18.9% | 98.9% | 88% | 92% | 86.6% | 96% | 88.4% | 99.1% | 84.9% | 93.1% | 108% | 34.6% | 100% | 90.6% | 95.2% | 93.1% | 95.6% | 91.7% | 103% |
